Compound: C1CC(C2=C(C1)C3=C(N2)C=CC(=C3)Cl)C(=O)N [Selisistat] + Nc1ncn([C@H]2C[C@H](O)[C@@H](CO)O2)c(=O)n1 [Decitabine] (partner 2 µM)
Assay: relative viability (nuclei count vs DMSO), 5 days (fraction); higher = more cells survive
Conditions: first compound 40 µM
Procedure, shortened: (§1)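 For relative viability, nuclei counts in treated wells were divided by those in vehicle wells. Lung cancer cell lines had been pin-tool dosed in 1536-well plates the day after seeding and cultured for 5 days, then fixed and stained in one step (final 0.05% Triton X-100, 1% formaldehyde, 1 ug/ml Hoechst) and imaged at 4×. Doses were one drug alone or a fixed anchor-drug dose plus five library-drug doses (not always all listed) in √10 steps, and values are duplicate-plate medians.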

| Cell Line | relative viability |
| --- | --- |
| NCI-H358 | 0.218 |

Compound: C1CC(C2=C(C1)C3=C(N2)C=CC(=C3)Cl)C(=O)N [Selisistat] + CC(C)C[C@H](NC(=O)[C@H](Cc1ccccc1)NC(=O)c1cnccn1)B(O)O [Bortezomib] (partner 0.002 µM)
Assay: as above
Conditions: first compound 0.4 µM
Procedure, shortened: as §1

| Cell Line | relative viability |
| --- | --- |
| NCI-H727 | 1.01 |
| NCI-H1650 | 0.281 |
| EBC-1 | 0.611 |
| NCI-H1703 | 0.293 |
| NCI-H1993 | 1.22 |
| SW 1573 | 1.19 |
| NCI-H838 | 0.803 |
| LCLC-103H | 1.15 |
| NCI-H520 | 0.525 |
| NCI-H2126 | 1.2 |
| EMC-BAC-2 | 1.08 |
| NCI-H2085 | 1.07 |
| Calu-6 | 0.998 |
| HCC-366 | 1.07 |
| NCI-H1666 | 1.07 |
| NCI-H596 | 1.01 |
| NCI-H2087 | 0.738 |
| H3255 | 0.811 |
| COR-L23 | 0.981 |
| COR-L 105 | 0.772 |
| IA-LM | 0.867 |
| LOU-NH91 | 0.499 |
| ChaGo-K-1 | 0.972 |
| NCI-H2405 | 0.985 |
| HOP-62 | 0.837 |
| NCI-H1299 | 1.07 |
| CAL-12T | 0.992 |
| NCI-H2228 | 1.01 |
| NCI-H1563 | 0.855 |
| ABC-1 | 0.317 |

Same assay, conditions: first compound 1.265 µM

| Cell Line | relative viability |
| --- | --- |
| NCI-H727 | 0.623 |
| NCI-H1650 | 0.205 |
| EBC-1 | 0.551 |
| NCI-H1703 | 0.286 |
| NCI-H1993 | 1.18 |
| SW 1573 | 1.02 |
| NCI-H838 | 0.73 |
| LCLC-103H | 1.03 |
| NCI-H520 | 0.495 |
| NCI-H2126 | 1.15 |
| EMC-BAC-2 | 1.05 |
| NCI-H2085 | 1.14 |
| Calu-6 | 0.961 |
| HCC-366 | 1.02 |
| NCI-H1666 | 0.797 |
| NCI-H596 | 0.105 |
| NCI-H2087 | 0.709 |
| H3255 | 0.61 |
| COR-L23 | 1.02 |
| COR-L 105 | 0.868 |
| IA-LM | 0.735 |
| LOU-NH91 | 0.505 |
| ChaGo-K-1 | 1.03 |
| NCI-H2405 | 0.932 |
| HOP-62 | 1.08 |
| NCI-H1299 | 1.07 |
| CAL-12T | 1.12 |
| NCI-H2228 | 1.01 |
| NCI-H1563 | 0.753 |
| ABC-1 | 0.327 |

Same assay, conditions: first compound 4 µM

| Cell Line | relative viability |
| --- | --- |
| NCI-H1650 | 0.222 |
| EBC-1 | 0.673 |
| NCI-H1703 | 0.301 |
| SW 1573 | 1.03 |
| NCI-H838 | 0.603 |
| LCLC-103H | 0.979 |
| NCI-H520 | 0.619 |
| NCI-H2126 | 1.12 |
| EMC-BAC-2 | 1.01 |
| NCI-H2085 | 0.95 |
| Calu-6 | 0.992 |
| HCC-366 | 0.955 |
| NCI-H1666 | 0.612 |
| NCI-H596 | 0.817 |
| NCI-H2087 | 0.734 |
| H3255 | 0.536 |
| COR-L23 | 1.09 |
| COR-L 105 | 0.493 |
| IA-LM | 0.758 |

— the supplement of paper PMC10307832
